According to paper PMC10178848, “Modulating fast skeletal muscle contraction protects skeletal muscle in animal models of Duchenne muscular dystrophy” (The Journal of Clinical Investigation, 2023):

System: mdx mouse EDL muscle
Test: Phosphoprotein array analysis (Cell Signaling Phospho Antibody Array)
Procedure: mdx mouse EDL muscle was prepared for ex vivo analysis as described (n = 5). Muscles were incubated for 1 hour with DMSO or EDG-5506 (5 μM) and then flash frozen in liquid nitrogen. Tissue preparation and analysis were performed as recommended by the manufacturer (Cell Signaling Phospho Antibody Array, Full Moon Biosystems).

## O=c1ccc(-c2cnc(OCC(F)(F)F)nc2)nn1Cc1cncc(F)c1 [EDG-5506]
4000031744 (T)
  Data Normalized to Median Signal: CDK1/CDC2 (Phospho-Tyr15): 0.89
  Data Normalized to Median Signal: CREB (Phospho-Ser133): 0.81
  Data Normalized to Median Signal: CaMK2-beta/gamma/delta (Phospho-Thr287): 1.20
  Data Normalized to Median Signal: CaMK2A (Phospho-Thr286): 0.85
  Data Normalized to Median Signal: Caspase 8 (Phospho-Ser347): 1.06
  Data Normalized to Median Signal: Caspase 9 (Phospho-Ser196): 2.98
  Data Normalized to Median Signal: Catenin beta (Phospho-Thr41/Ser45): 0.90
  Data Normalized to Median Signal: Chk2 (Phospho-Thr68): 0.66
  Data Normalized to Median Signal: Cyclin D1 (Phospho-Thr286): 2.47
  Data Normalized to Median Signal: Cyclin E1 (Phospho-Thr77): 1.57
  Data Normalized to Median Signal: DARPP-32 (Phospho-Thr34): 0.93
  Data Normalized to Median Signal: EEF2 (Phospho-Thr56): 1.33
  Data Normalized to Median Signal: FADD (Phospho-Ser194): 2.10
  Data Normalized to Median Signal: FAK (Phospho-Ser910): 1.62
  Data Normalized to Median Signal: FGFR1 (Phospho-Tyr654): 2.43
  Data Normalized to Median Signal: GRK2 (Phospho-Ser29): 1.51
  Data Normalized to Median Signal: GSK3 alpha/beta (Phospho-Tyr216/279): 1.02
  Data Normalized to Median Signal: Gab2 (Phospho-Tyr643): 4.36
  Data Normalized to Median Signal: HDAC1 (Phospho-Ser421): 1.53
  Data Normalized to Median Signal: HDAC2 (Phospho-Ser394): 1.45
  Data Normalized to Median Signal: HSP90B (Phospho-Ser226): 2.09
  Data Normalized to Median Signal: IKK-beta (Phospho-Tyr188): 1.11
  Data Normalized to Median Signal: IKK-beta (Phospho-Tyr199): 1.14
  Data Normalized to Median Signal: IKK-gamma (Phospho-Ser31): 0.98
  Data Normalized to Median Signal: IL-4R/CD124 (Phospho-Tyr497): 1.35
  Data Normalized to Median Signal: IL-10R-alpha (Phospho-Tyr496): 1.26
  Data Normalized to Median Signal: IkB-alpha (Phospho-Ser32/36): 8.76
  Data Normalized to Median Signal: Integrin beta-3 (Phospho-Tyr773): 0.89
  Data Normalized to Median Signal: JunB (Phospho-Ser259): 0.90
  Data Normalized to Median Signal: LYN (Phospho-Tyr507): 1.16
  Data Normalized to Median Signal: Lamin A/C (Phospho-Ser392): 0.81
  Data Normalized to Median Signal: MEK1 (Phospho-Ser217): 0.66
  Data Normalized to Median Signal: NFkB-p65 (Phospho-Ser311): 0.96
  Data Normalized to Median Signal: NFkB-p65 (Phospho-Ser529): 54.58
  Data Normalized to Median Signal: NFkB-p100/p52 (Phospho-Ser865): 1.13
  Data Normalized to Median Signal: P38 MAPK (Phospho-Thr180/Tyr182): 1.99
  Data Normalized to Median Signal: P70S6K (Phospho-Ser424): 0.97
  Data Normalized to Median Signal: P90RSK (Phospho-Thr359/Ser363): 1.39
  Data Normalized to Median Signal: PDK1 (Phospho-Ser241): 1.70
  Data Normalized to Median Signal: PLCG1 (Phospho-Tyr783): 7.48
  Data Normalized to Median Signal: PLK1 (Phospho-Thr210): 0.61
  Data Normalized to Median Signal: PP2A-alpha (Phospho-Tyr307): 0.97
  Data Normalized to Median Signal: PPAR-gamma (Phospho-Ser112): 1.23
  Data Normalized to Median Signal: Rb (Phospho-Ser807): 0.99
  Data Normalized to Median Signal: RelB (Phospho-Ser552): 2.68
  Data Normalized to Median Signal: SAPK/JNK (Phospho-Tyr185): 0.87
  Data Normalized to Median Signal: SHP-2 (Phospho-Tyr542): 1.06
  Data Normalized to Median Signal: STAT3 (Phospho-Tyr705): 0.90
  Data Normalized to Median Signal: STAT4 (Phospho-Tyr693): 43.74
  Data Normalized to Median Signal: STAT6 (Phospho-Thr645): 0.94
  Data Normalized to Median Signal: SYK (Phospho-Tyr348): 1.04
  Data Normalized to Median Signal: Smad1 (Phospho-Ser187): 1.71
  Data Normalized to Median Signal: Smad2 (Phospho-Ser467): 1.05
  Data Normalized to Median Signal: Smad2/3 (Phospho-Thr8): 2.11
  Data Normalized to Median Signal: Smad3 (Phospho-Ser213): 1.56
  Data Normalized to Median Signal: Src (Phospho-Tyr418): 9.05
  Data Normalized to Median Signal: Tau (Phospho-Ser396): 0.88
  Data Normalized to Median Signal: VEGFR2 (Phospho-Tyr1175): 0.88
  Data Normalized to Median Signal: Zap-70 (Phospho-Tyr319): 1.25
  Data Normalized to Median Signal: c-Jun (Phospho-Ser73): 0.98
  Data Normalized to Median Signal: p44/42 MAP Kinase (Phospho-Tyr204): 0.86
  Data Normalized to Median Signal: p53 (Phospho-Ser15): 1.59
T vs C
  Fold Change between Samples T/C: 4E-BP1 (Phospho-Thr45): 0.89
  Fold Change between Samples T/C: ACC1 (Phospho-Ser80): 1.12
  Fold Change between Samples T/C: AMPKbeta1 (Phospho-Ser182): 0.97
  Fold Change between Samples T/C: B-RAF (Phospho-Ser446): 1.05
  Fold Change between Samples T/C: BAX (Phospho-Thr167): 0.95
  Fold Change between Samples T/C: BCL-XL (Phospho-Ser62): 1.23
  Fold Change between Samples T/C: BLNK (Phospho-Tyr96): 0.62
  Fold Change between Samples T/C: CBL (Phospho-Tyr700): 0.88
  Fold Change between Samples T/C: CDK1/CDC2 (Phospho-Tyr15): 0.83
  Fold Change between Samples T/C: CREB (Phospho-Ser133): 0.74
  Fold Change between Samples T/C: CaMK2-beta/gamma/delta (Phospho-Thr287): 0.92
  Fold Change between Samples T/C: CaMK2A (Phospho-Thr286): 0.86
  Fold Change between Samples T/C: Caspase 8 (Phospho-Ser347): 1.08
  Fold Change between Samples T/C: Caspase 9 (Phospho-Ser196): 0.94
  Fold Change between Samples T/C: Catenin beta (Phospho-Thr41/Ser45): 0.83
  Fold Change between Samples T/C: Chk2 (Phospho-Thr68): 0.51
  Fold Change between Samples T/C: Cyclin D1 (Phospho-Thr286): 1.18
  Fold Change between Samples T/C: Cyclin E1 (Phospho-Thr77): 1.02
  Fold Change between Samples T/C: DARPP-32 (Phospho-Thr34): 0.91
  Fold Change between Samples T/C: EEF2 (Phospho-Thr56): 1.12
  Fold Change between Samples T/C: FADD (Phospho-Ser194): 1.53
  Fold Change between Samples T/C: FAK (Phospho-Ser910): 1.09
  Fold Change between Samples T/C: FGFR1 (Phospho-Tyr654): 1.35
  Fold Change between Samples T/C: GRK2 (Phospho-Ser29): 1.26
  Fold Change between Samples T/C: GSK3 alpha/beta (Phospho-Tyr216/279): 0.97
  Fold Change between Samples T/C: Gab2 (Phospho-Tyr643): 1.59
  Fold Change between Samples T/C: HDAC1 (Phospho-Ser421): 1.25
  Fold Change between Samples T/C: HDAC2 (Phospho-Ser394): 0.90
  Fold Change between Samples T/C: HSP90B (Phospho-Ser226): 1.00
  Fold Change between Samples T/C: IKK-beta (Phospho-Tyr188): 1.01
  Fold Change between Samples T/C: IKK-beta (Phospho-Tyr199): 0.84
  Fold Change between Samples T/C: IKK-gamma (Phospho-Ser31): 0.98
  Fold Change between Samples T/C: IL-4R/CD124 (Phospho-Tyr497): 0.93
  Fold Change between Samples T/C: IL-10R-alpha (Phospho-Tyr496): 0.85
  Fold Change between Samples T/C: IkB-alpha (Phospho-Ser32/36): 1.11
  Fold Change between Samples T/C: Integrin beta-3 (Phospho-Tyr773): 0.93
  Fold Change between Samples T/C: JunB (Phospho-Ser259): 0.79
  Fold Change between Samples T/C: LYN (Phospho-Tyr507): 1.06
  Fold Change between Samples T/C: Lamin A/C (Phospho-Ser392): 0.80
  Fold Change between Samples T/C: MEK1 (Phospho-Ser217): 0.62
  Fold Change between Samples T/C: NFkB-p65 (Phospho-Ser311): 1.00
  Fold Change between Samples T/C: NFkB-p65 (Phospho-Ser529): 0.82
  Fold Change between Samples T/C: NFkB-p100/p52 (Phospho-Ser865): 0.88
  Fold Change between Samples T/C: P38 MAPK (Phospho-Thr180/Tyr182): 0.35
  Fold Change between Samples T/C: P70S6K (Phospho-Ser424): 1.00
  Fold Change between Samples T/C: P90RSK (Phospho-Thr359/Ser363): 0.95
  Fold Change between Samples T/C: PDK1 (Phospho-Ser241): 1.14
  Fold Change between Samples T/C: PLCG1 (Phospho-Tyr783): 2.25
  Fold Change between Samples T/C: PLK1 (Phospho-Thr210): 0.60
  Fold Change between Samples T/C: PP2A-alpha (Phospho-Tyr307): 0.93
  Fold Change between Samples T/C: PPAR-gamma (Phospho-Ser112): 1.26
  Fold Change between Samples T/C: Rb (Phospho-Ser807): 0.91
  Fold Change between Samples T/C: RelB (Phospho-Ser552): 0.76
  Fold Change between Samples T/C: SAPK/JNK (Phospho-Tyr185): 0.84
  Fold Change between Samples T/C: SHP-2 (Phospho-Tyr542): 0.91
  Fold Change between Samples T/C: STAT3 (Phospho-Tyr705): 0.92
  Fold Change between Samples T/C: STAT4 (Phospho-Tyr693): 1.04
  Fold Change between Samples T/C: STAT6 (Phospho-Thr645): 0.89
  Fold Change between Samples T/C: SYK (Phospho-Tyr348): 0.91
  Fold Change between Samples T/C: Smad1 (Phospho-Ser187): 1.60
  Fold Change between Samples T/C: Smad2 (Phospho-Ser467): 1.00
  Fold Change between Samples T/C: Smad2/3 (Phospho-Thr8): 1.25
  Fold Change between Samples T/C: Smad3 (Phospho-Ser213): 1.26
  Fold Change between Samples T/C: Src (Phospho-Tyr418): 0.77
